Where two headings read alike, the source gives them in different places.
Key:
[1] = test system: human solid tumor xenograft model; set-up: method as in PMID 17616698; conditions: consecutive-day dosing; cited from earlier work
[2] = human, in vivo, 20 mg/m2
Method: (§3) Serial blood samples were collected on days 1 and 16 of cycle 1 and day 16 of cycle 2 as follows: predose, immediately post-dose, and then at 5, 15, and 30 min, and 1, 2, and 4 h post-dose. Plasma samples for PK studies were assayed using validated liquid chromatography/mass spectrometry with a lower limit of detection of 0.10 ng/ml [17].
(§4) Pharmacokinetic parameters were estimated by non-compartmental analysis using WinNonlin Enterprise Version 5.2 (Pharsight Inc., Mountain View, CA).

solid tumor cell lines = test system: solid tumor cell lines; set-up: method as in PMID 17616698; conditions: 1-h pulse, replicating clinical pharmacokinetics; cited from earlier work
[3] = test system: patients with advanced solid tumors; experiment: Phase I dose escalation (3 + 3): DLT and MTD determination; format: in vivo
Method: Carfilzomib (Onyx Pharmaceuticals, Inc, South San Francisco, CA) was administered by intravenous infusion over 2–10 min on days 1, 2, 8, 9, 15, and 16 of a 28-day cycle. For the phase I dose-escalation portion, the starting dose in all cohorts for days 1 and 2 of cycle 1 was 20 mg/m^2, based on the tolerated dose identified in hematologic malignancies. On all remaining cycle 1 dosing days (days 8, 9, 15, and 16) and in all subsequent cycles, carfilzomib was administered at a dose of 20 mg/m^2 in cohort 1 (20/20 mg/m^2), 27 mg/m^2 in cohort 2 (20/27 mg/m^2), and 36 mg/m^2 in cohort 3 (20/36 mg/m^2). Stepped-up dosing in cycle 1 and dexamethasone premedication were adopted to abrogate fever, chills and/or rigors, and dyspnea, all of which were […] observed during initial therapy in MM trials. Dexamethasone 4 mg (intravenous or oral) was administered prior to each carfilzomib dose for the first cycle and during subsequent cycles when indicated. Upon completion of 12 treatment cycles, patients had the option of enrolling in an open-label extension study, PX-171-010 (NCT00884312).
(§1) The phase I dose-escalation portion of the study followed the standard 3 + 3 design. Patients were enrolled at two sites in sequential cohorts of 3–6 patients each to establish the MTD. The MTD was defined as the highest dose up to the MPD at which […] of six patients experienced treatment-related dose-limiting toxicities (DLT) during the first cycle. DLTs were defined as treatment-related ≥grade 2 neuropathy with pain, ≥grade 3 non-hematologic toxicity, grade 4 neutropenia or thrombocytopenia lasting 7 or more days, or thrombocytopenia with bleeding. Toxicity was graded according to NCI CTCAE v3.0 [19].

advanced solid tumors = experiment: Antitumor activity, treatment response by RECIST 1.0; format: in vivo, human
Method: The primary objective of the phase I dose-escalation portion of the study was to determine the maximum tolerated dose (MTD) of carfilzomib up to a maximum planned dose (MPD) of 20/36 mg/m^2. The primary objective of the expansion (various tumor types) and phase II tumor-specific portions was to determine the disease control rate [DCR = complete response (CR) + partial response (PR) + stable disease (SD)] as defined by RECIST 1.0 [18] after four cycles of treatment at the MTD or MPD. Secondary objectives included pharmacokinetics (PK) and pharmacodynamics (PDn) of carfilzomib.
Once dose escalation was completed, an additional 11 evaluable patients with assorted tumor types could enroll in the expansion cohort to receive carfilzomib at the MTD/MPD. In the phase II tumor-specific portion of the study, cohorts of patients with NSCLC, SCLC, ovarian cancer, and renal cancer were to be treated at the MTD/MPD utilizing a Simon two-stage design. Tumor types included in the phase II tumor-specific cohorts were selected based on efficacy results from the phase I dose-escalation portion and preclinical data.
(§2) All patients who received at least one dose of study treatment were evaluable for the safety analysis. After the initiation of carfilzomib, adverse events (AEs) were evaluated at each visit. Patients completed a comprehensive neurologic evaluation and radiographic assessment of tumor burden using computerized tomography (CT) at baseline and every 8 weeks for the first 24 weeks, then every 12 weeks thereafter or at treatment discontinuation. Patients who received at least one cycle of treatment and had both baseline and post-baseline disease assessments were evaluable for efficacy. Treatment response was assessed according to RECIST 1.0 [18]. Patients with stable disease (SD) or an objective response (CR or PR) after two cycles continued treatment until disease progression or unacceptable toxicity.
Continuous and categorical data were summarized with descriptive statistics or frequencies and percentages, respectively. For the phase II tumor-specific portion, the Simon two-stage sample size calculation applied a null hypothesis objective response rate (ORR = CR + PR) of 2 % and an alternative hypothesis ORR of 15 %, with the type I error at 5 % and a power of 0.8. For stage 1, 11 evaluable patients were to be enrolled in each of the four solid tumor cohorts. […] Because there were multiple study sites, over enrollment was permitted.

clinical = conditions: human, in vivo
Method: as §3, §4

proteasome in PBMCs = test system: proteasome in PBMCs; set-up: method as in PMID 22761464; conditions: 20/27 mg/m^2, patients with hematologic malignancies; cited from earlier work
[4] = test system: patients with advanced solid tumors; experiment: Safety: adverse events graded by NCI CTCAE v3.0; format: in vivo
Source text: as §1, §2

[5] = test system: proteasome chymotrypsin-like (CT-L) activity in whole blood and PBMCs; experiment: Pharmacodynamics: proteasome CT-L activity, fluorogenic LLVY-AMC substrate assay; format: in vivo, human; conditions: for Median proteasome inhibition / proteasome inhibition, range: day 1 of cycle 2
Method: Whole blood was collected on day 1 of the first two cycles prior to and 1 h after infusion for measurement of proteasome activity in whole blood and peripheral blood mononuclear cells (PBMCs). CT-L activity was assessed using a fluorogenic substrate assay with succinyl–Leu–Leu–Val–Tyr–AMC (LLVY) as previously described.

patients with MM = conditions: human, in vivo, iv; cited from earlier work
[6] = 20 mg/m^2, one hour after administration
[7] = 27 mg/m^2, one hour after administration
[8] = 36 mg/m^2, one hour after administration

In the case of CC(C)C[C@H](NC(=O)[C@H](CCc1ccccc1)NC(=O)CN1CCOCC1)C(=O)N[C@@H](Cc1ccccc1)C(=O)N[C@@H](CC(C)C)C(=O)[C@@]1(C)CO1 [carfilzomib], the “antitumor activity compared with bortezomib or carfilzomib dosed on days 1 and 4” value [1] is listed as “more effective antitumor activity”, the AUClast [2] is listed as 269 ± 61.7 ng·h/mL and the CL [2] is listed as 136 ± 52.8 L/h. The Cmax [2] was 3410 ± 51.5 ng/mL, the “potency at killing solid tumor cell lines compared with bortezomib” value (solid tumor cell lines) was “more potent than bortezomib” and the “MPD recommended for the expansion and phase II tumor-specific portions” value ([3]; human, in vivo, iv, 28 days) was 20/36. The “dose-limiting toxicities (DLT)” value ([3]; in vivo) was “no DLTs”, the “maximum tolerated dose (MTD)” value ([3]; phase I dose-escalation portion, up to the MPD of 20/36 mg/m^2) was “No MTD was identified” and the “PD as best response” value (advanced solid tumors; expansion and phase II patients, 29/51, 20/36 mg/m^2) was 56.9%. The “patients with SD for 6 months or longer” value (advanced solid tumors; expansion and phase II tumor-specific cohorts, 20/36 mg/m^2) was “four”, the “patients with SD after two cycles” value (advanced solid tumors; expansion and phase II tumor-specific cohorts, 22 of 51 evaluable patients, 20/36 mg/m^2) was 43.1% and the PR or better (advanced solid tumors; expansion and phase II tumor-specific cohorts, 51 evaluable patients, 20/36 mg/m^2, after four cycles or over the study period) was “No patients”. The “reduction in tumor burden” value (advanced solid tumors; one patient with renal cancer, 20/36 mg/m^2, after five cycles) was > 80%, the “progressive disease (PD)” value (advanced solid tumors; phase I dose-escalation portion, 12 evaluable patients) was “eight” and the “confirmed partial response (PR)” value (advanced solid tumors; phase I dose-escalation portion, 20/36 mg/m^2, 12 evaluable patients) was “two”. The AUC(0-t) (clinical; 20 mg/m2, AUClast) was 251 ± 92 ng·h/mL, the clearance (clinical; 20 mg/m2, CL) was 4380 mL/min and the Cmax (clinical; 20 mg/m2, Cmax) was 2390 ± 104 ng/mL. The AUC(0-t) (clinical; 27 mg/m2, AUClast) was 379 ± 24.8 ng·h/mL, the clearance (clinical; 27 mg/m2, CL) was 2500 mL/min and the Cmax (clinical; 27 mg/m2, Cmax) was 4230 ± 48.8 ng/mL. For the same molecule, the Vd (clinical; 27 mg/m2, V ss) was 11.1 ± 4.45 L, the half-life (clinical; 27 mg/m2, t 1/2) was 21 min and the AUC(0-t) (clinical; 36 mg/m2, AUClast) was 594 ± 52.5 ng·h/mL. It also gave a clearance (clinical; 36 mg/m2, CL) of 1930 mL/min, a Cmax (clinical; 36 mg/m2, Cmax) of 5718 ± 46.5 ng/mL and a Vd (clinical; 36 mg/m2, V ss) of 9.33 ± 4.8 L. For the same molecule, the half-life (clinical; 36 mg/m2, t 1/2) was 52.2 min, the half-life (clinical; iv, half-life) was < 60 min and the proteasome inhibition (proteasome in PBMCs) was > 90%. The “AE: fatigue” value ([4]; human, in vivo) was 35.7%, the “AE: headache” value ([4]; human, in vivo) was 42.9% and the “AE: hypokalemia” value ([4]; human, in vivo) was 35.7%. The “patients who discontinued due to AEs” value ([4]; human, in vivo) was 14.3%, the “patients who discontinued due to an AE” value ([4]; human, in vivo) was 10.8% and the “patients who missed at least one carfilzomib dose due to AEs” value ([4]; human, in vivo) was 29.2%. The “patients with carfilzomib dose reduced due to AEs of elevated blood creatinine/decreased CrCl” value ([4]; human, in vivo) was 12.3%, the “carfilzomib dose reduced due to AEs” value ([4]; in vivo) was “No patients” and the “deaths considered related to carfilzomib” value ([4]; on study or within 30 days of ending treatment) was “No deaths”. For the same molecule, the Median proteasome inhibition [5, 6] was 83.4%, the “proteasome inhibition, range” value [5, 6] was 82.9–85.5% and the Median proteasome inhibition [5, 7] was 91.6%. The “proteasome inhibition, range” value [5, 7] was 79.0–93.2%, the Median proteasome inhibition [5, 8] was 88.6% and the “proteasome inhibition, range” value [5, 8] was 54.7–99.4%. The “recovery of proteasome activity by the start of the second cycle” value ([5]; PBMCs) was “there was recovery”, the “recovery of constitutive proteasome activity between cycles” value ([5]; whole blood) was “Minimal recovery” and the “inhibition of proteasome CT-L activity” value ([5]; whole blood and PBMCs, one hour after administration on day 1 of cycle 2, all doses) was “at least 80%”. The tolerable dose (patients with MM) was 20/27.
